How the values were obtained:
[1] = system: neonatal rat cardiac fibroblasts (CFs); assay: FBS-induced cardiac fibroblast proliferation assay (Alamar Blue); format: cell-based; details: 10% FBS-induced CF proliferation, 48 h, read-out: Inhibition percentage of cell proliferation
[2] = system: histone H4-acetylated in CFs; assay: Histone H4-acetylated expression in cardiac fibroblasts, western blot; format: cell-based, rat; details: 5 μM for 8 h, vs. control
Method: For this purpose, CFs of neonatal rats were incubated in the presence/absence of the 5a, 6a, 7a and 8a derivatives, and the expression of histone H4–acetylated was measured using the western blot technique.
For the analysis of the protein expression of histone H4–acetylated (ac–H4) and total H4 histone, a number of 1 × 10^6 of CFs seeded in 60 mm plates was used, […] Subsequently, total histones were extracted by the technique of saline precipitation (high salt extraction). Briefly, CFs were scraped from the plates with 1 mL of cold PBS transferring their contents to Eppendorf tubes to be centrifuged for 60 s at 1500 rpm at 4 °C and re–suspended in 400 μL of cold buffer A (10 mM 4-(2-hydroxyethyl)-1-piperazineethanesulfonic acid-KOH (HEPES-KOH) adjusted to pH 7.9, 1.5 mM MgCl2, 10 mM KCl, 0.5 mM dithiothreitol and 0.2 mM phenylmethylsulfonyl fluoride (PMSF). The suspension is left on ice for 10 min and then placed in the vortex for 10 s. The samples were centrifuged for 60 s, subsequently discarding the supernatant fraction. The obtained pellet was re-suspended in 60 μL of cold C buffer (20 mM HEPES-KOH adjusted to pH 7.9, 25% glycerol, 420 mM NaCl, 1.5 mM MgCl2, 0.2 mM EDTA, dithiothreitol 0.5 mM and 0.2 mM PMSF) and placed on ice for 20 min for saline precipitation. Cell debris is removed by centrifugation for 120 s at 1500 rpm at 4 °C and the supernatant fraction, which contains the DNA binding proteins, is stored at minus 20 °C. For the analysis of α–SMA and procollagen type I expression levels, 3×10^5 CFs seeded in 35 mm plates were used, which were incubated together with inhibitor compounds at a 5 μM, in the absence/presence of TGF–β1 (5 ng/mL) for 48 h. To obtain the total proteins, the CFs were washed three times with cold PBS, then scraped and lysed with 50 μL of radio inmuno-precipitation assay (RIPA) lysis buffer (10 mM Tris–HCl pH 7.2, 5 mM EDTA, 150 mM NaCl, Triton X–100 1%, sodium dodecyl sulfate (SDS) 0.1%, deoxycholate 1%, leupeptin 2 μg/mL, aprotinin 10mM, PMSF 1mM and Na3VO4 100μM). The solution was centrifuged for 15 min at 10,000 rpm and at 4 °C. The supernatant fraction containing the total proteins was stored at minus 20 °C. The concentration of proteins obtained was determined by spectrophotometry at 570 nm, using the Bradford method (Bio-Rad, Hercules, CA, USA).
CFs proteins (25 μg), were subjected to 10% sodium dodecyl sulfate-polyacrylamide gel electrophoresis and finally transferred onto a nitrocellulose membrane (Millipore, Billerica, MA, USA). The membrane was washed twice with tris–buffered saline solution containing 0.1% Tween 20 (TBST). […]
Figure 3 CTz non–substituted derivatives inhibit histone H4 acetylation. […] Nuclear extracts were isolated and histone H4 acetylation expression levels were measured by western blot. […]

Row | SMILES | inhibition at 1 µM [1] [%] | inhibition at 5 µM [1] [%] | inhibition at 10 µM [1] [%] | histone H4-acetylated expression [2]
1 | O=C(Nc1nc(-c2cc3ccccc3oc2=O)cs1)c1ccc(O)c(O)c1 [Compound 6a] | 3 ± 3.9 | 35 ± 1.9 | 60.6 ± 1.9 | increase in a statistically significant manner
2 | O=C(O)CCCCC(=O)Nc1nc(-c2cc3ccccc3oc2=O)cs1 [Compound 7a] | 0.5 ± 0.1 | 26.8 ± 5.9 | 45 ± 5.1 | had no effect
3 | O=C(CCCCC(=O)Nc1nc(-c2cc3ccccc3oc2=O)cs1)NO [Compound 8a, 5-[4-(2-Oxo-2H-chromen-3-yl)-thiazol-2-yl-carbamoyl]-N-hydroxypentanamide] | 59.4 ± 6.1 | 79.9 ± 9.7 | 94.4 ± 3.8 | increase in a statistically significant manner
4 | O=C(CCCCC1CCSS1)Nc1nc(-c2cc3ccccc3oc2=O)cs1 (stereo not shown) [Compound 5a, 5-[1,2]-Dithiolan-3-yl-N-[4-(2-oxo-2H-chromen-3-yl)-thiazol-2-yl]-pentanamide] | 57.3 ± 6.7 | 70.7 ± 7.1 | 92.8 ± 6.4 | increase in a statistically significant manner

Source: article PMC6412891, “Synthesis and Biological Evaluation of Novel Thiazolyl-Coumarin Derivatives as Potent Histone Deacetylase Inhibitors with Antifibrotic Activity” (Molecules, 2019)
